Reference: paper PMC7031741 (Journal of Ginseng Research, 2018)
pIC50: −log10 of the molar value.

Biological target: ABCB1 (P-glycoprotein, P-gp) (Homo sapiens, UniProt P08183)
Test: Pgp-Glo ATPase assay: inhibition of verapamil-stimulated ABCB1 ATPase
Type: biochemical

Sequence of ABCB1 (P-glycoprotein, P-gp) (P08183 whole entry): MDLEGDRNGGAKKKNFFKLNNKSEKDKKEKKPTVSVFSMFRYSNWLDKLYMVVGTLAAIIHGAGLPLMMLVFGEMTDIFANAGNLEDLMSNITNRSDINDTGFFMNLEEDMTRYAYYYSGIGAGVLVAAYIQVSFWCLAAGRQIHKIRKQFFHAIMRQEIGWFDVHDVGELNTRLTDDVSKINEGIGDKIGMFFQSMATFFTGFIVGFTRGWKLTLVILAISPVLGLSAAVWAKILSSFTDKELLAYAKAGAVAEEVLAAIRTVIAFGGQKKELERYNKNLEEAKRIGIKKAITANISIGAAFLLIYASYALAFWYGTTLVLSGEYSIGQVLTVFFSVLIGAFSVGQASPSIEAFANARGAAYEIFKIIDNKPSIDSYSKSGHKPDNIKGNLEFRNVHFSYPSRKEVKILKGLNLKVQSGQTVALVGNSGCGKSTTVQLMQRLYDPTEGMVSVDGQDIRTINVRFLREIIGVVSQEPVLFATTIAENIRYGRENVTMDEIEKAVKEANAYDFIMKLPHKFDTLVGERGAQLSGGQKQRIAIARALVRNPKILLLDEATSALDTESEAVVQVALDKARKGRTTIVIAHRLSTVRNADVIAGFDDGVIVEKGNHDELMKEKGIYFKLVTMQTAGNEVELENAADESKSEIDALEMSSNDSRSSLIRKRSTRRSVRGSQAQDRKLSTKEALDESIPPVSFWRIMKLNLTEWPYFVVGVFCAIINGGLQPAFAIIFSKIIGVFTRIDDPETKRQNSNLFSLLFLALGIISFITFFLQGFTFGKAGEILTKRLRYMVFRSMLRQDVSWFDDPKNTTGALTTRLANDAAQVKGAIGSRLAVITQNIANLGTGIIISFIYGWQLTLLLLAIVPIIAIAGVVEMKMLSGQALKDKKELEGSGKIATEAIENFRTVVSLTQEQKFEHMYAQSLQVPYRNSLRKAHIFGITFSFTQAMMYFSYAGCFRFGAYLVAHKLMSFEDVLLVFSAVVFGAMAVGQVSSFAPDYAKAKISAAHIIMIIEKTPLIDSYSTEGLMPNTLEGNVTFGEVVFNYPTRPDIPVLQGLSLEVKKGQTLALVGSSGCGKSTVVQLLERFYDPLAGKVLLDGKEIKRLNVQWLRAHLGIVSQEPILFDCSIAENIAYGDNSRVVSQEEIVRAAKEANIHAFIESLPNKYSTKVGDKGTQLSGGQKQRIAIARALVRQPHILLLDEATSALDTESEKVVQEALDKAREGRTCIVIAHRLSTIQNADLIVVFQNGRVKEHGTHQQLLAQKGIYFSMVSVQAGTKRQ

For `CC(C)=CC/C=C(\C)[C@H]1CC[C@]2(C)[C@@H]1[C@H](O)C[C@@H]1[C@@]3(C)CC[C@H](O[C@@H]4O[C@H](CO)[C@@H](O)[C@H](O)[C@H]4O[C@@H]4O[C@H](CO)[C@@H](O)[C@H](O)[C@H]4O)C(C)(C)[C@@H]3CC[C@]12C` [Rg5, Ginsenoside Rg5], the pIC50 was 5.04.
